Test results as given in paper PMC6979384, “Characterization of the plant homeodomain (PHD) reader family for their histone tail interactions” (Epigenetics & Chromatin, 2020).

What was measured:
Assay in all cases: Histone peptide microarray
Format in all cases: binding, human
[1] = test system: PHRF1 (RP); conditions: total n = 4; for Array Heatmap signal (histone peptide microarray): GST-tagged PHRF1 (RP), sheet Array Heatmap, each array performed twice
How it was run: (§1)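 Recombinant GST-PHD protein at 0.5 μM; 293-member modified histone peptide array; signals averaged from four repeats ± SD.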

[2] = test system: DPF2 (PPC2W2); conditions: total n = 4; for Array Heatmap signal (histone peptide microarray): GST-tagged DPF2 (PPC2W2 = Dual PHD + C2W2-type Zn-finger), sheet Array Heatmap, each array performed twice
How it was run: as §1

[3] = test system: KDM4C (TTP); conditions: total n = 4; for Array Heatmap signal (histone peptide microarray): GST-tagged KDM4C (TTP = Tandem Tudor domain + PHD), sheet Array Heatmap, each array performed twice
How it was run: as §1

[4] = test system: PHF21A; conditions: total n = 4; for Array Heatmap signal (histone peptide microarray): GST-tagged PHF21A, sheet Array Heatmap, each array performed twice
How it was run: as §1

[5] = test system: MLL5; conditions: total n = 4; for Array Heatmap signal (histone peptide microarray): GST-tagged MLL5, sheet Array Heatmap, each array performed twice
How it was run: as §1

[6] = test system: CHD5 (PPCC); conditions: total n = 4; for Array Heatmap signal (histone peptide microarray): GST-tagged CHD5 (PPCC = Dual PHD + Dual Chromodomain), sheet Array Heatmap, each array performed twice
How it was run: as §1

[7] = test system: RAG2; conditions: total n = 4; for Array Heatmap signal (histone peptide microarray): GST-tagged RAG2, sheet Array Heatmap, each array performed twice
How it was run: as §1

[8] = test system: KDM5B (3); conditions: total n = 4; for Array Heatmap signal (histone peptide microarray): GST-tagged KDM5B (3), sheet Array Heatmap, each array performed twice
How it was run: as §1

[9] = test system: TRIM66 (PB); conditions: total n = 4; for Array Heatmap signal (histone peptide microarray): GST-tagged TRIM66 (PB = PHD + Bromodomain), sheet Array Heatmap, each array performed twice
How it was run: as §1

[10] = test system: PHF2; conditions: total n = 4; for Array Heatmap signal (histone peptide microarray): GST-tagged PHF2, sheet Array Heatmap, each array performed twice
How it was run: as §1

[11] = test system: ING4; conditions: total n = 4; for Array Heatmap signal (histone peptide microarray): GST-tagged ING4, sheet Array Heatmap, each array performed twice
How it was run: as §1

[12] = test system: KDM5B (1); conditions: total n = 4; for Array Heatmap signal (histone peptide microarray): GST-tagged KDM5B (1), sheet Array Heatmap, each array performed twice
How it was run: as §1

[13] = test system: ING1; conditions: total n = 4; for Array Heatmap signal (histone peptide microarray): GST-tagged ING1, sheet Array Heatmap, each array performed twice
How it was run: as §1

[14] = test system: MORC3 (CW); conditions: total n = 4; for Array Heatmap signal (histone peptide microarray): GST-tagged MORC3 (CW = CW-type Zn-finger), sheet Array Heatmap, each array performed twice
How it was run: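 GST-PHD reader, 0.5 μM, probed on 293-peptide histone array (single/combinatorial PTMs); optimized array protocol; signal = mean ± SD, n = 4.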

[15] = test system: ING2; conditions: total n = 4; for Array Heatmap signal (histone peptide microarray): GST-tagged ING2, sheet Array Heatmap, each array performed twice
How it was run: as §1

[16] = test system: BAZ2B; conditions: total n = 4; for Array Heatmap signal (histone peptide microarray): GST-tagged BAZ2B, sheet Array Heatmap, each array performed twice
How it was run: as §1

[17] = test system: DIDO1; conditions: total n = 4; for Array Heatmap signal (histone peptide microarray): GST-tagged DIDO1, sheet Array Heatmap, each array performed twice
How it was run: as §1

[18] = test system: PHF13; conditions: total n = 4; for Array Heatmap signal (histone peptide microarray): GST-tagged PHF13, sheet Array Heatmap, each array performed twice
How it was run: as §1

[19] = test system: PHF23; conditions: total n = 4; for Array Heatmap signal (histone peptide microarray): GST-tagged PHF23, sheet Array Heatmap, each array performed twice
How it was run: as §1

[20] = test system: CHD5 (PCC); conditions: total n = 4; for Array Heatmap signal (histone peptide microarray): GST-tagged CHD5 (PCC = PHD + Dual Chromodomain), sheet Array Heatmap, each array performed twice
How it was run: as §1

[21] = test system: BPTF (PB); conditions: total n = 4; for Array Heatmap signal (histone peptide microarray): GST-tagged BPTF (PB = PHD + Bromodomain), sheet Array Heatmap, each array performed twice
How it was run: as §1

[22] = test system: KDM7A; conditions: total n = 4; for Array Heatmap signal (histone peptide microarray): GST-tagged KDM7A, sheet Array Heatmap, each array performed twice
How it was run: as §1

[23] = test system: TAF3; conditions: total n = 4; for Array Heatmap signal (histone peptide microarray): GST-tagged TAF3, sheet Array Heatmap, each array performed twice
How it was run: as §1

[24] = test system: CHD4 (PPCC); conditions: total n = 4; for Array Heatmap signal (histone peptide microarray): GST-tagged CHD4 (PPCC = Dual PHD + Dual Chromodomain), sheet Array Heatmap, each array performed twice
How it was run: as §1

[25] = test system: KDM5A (3); conditions: total n = 4; for Array Heatmap signal (histone peptide microarray): GST-tagged KDM5A (3), sheet Array Heatmap, each array performed twice
How it was run: as §1

[26] = test system: AIRE (PP); conditions: total n = 4; for Array Heatmap signal (histone peptide microarray): GST-tagged AIRE (PP), sheet Array Heatmap, each array performed twice
How it was run: as §1

[27] = test system: SP140L; conditions: total n = 4; for Array Heatmap signal (histone peptide microarray): GST-tagged SP140L, sheet Array Heatmap, each array performed twice
How it was run: as §1

[28] = test system: ING3; conditions: total n = 4; for Array Heatmap signal (histone peptide microarray): GST-tagged ING3, sheet Array Heatmap, each array performed twice
How it was run: as §1

[29] = test system: PHF8; conditions: total n = 4; for Array Heatmap signal (histone peptide microarray): GST-tagged PHF8, sheet Array Heatmap, each array performed twice
How it was run: as §1

[30] = test system: KDM5A (1); conditions: total n = 4; for Array Heatmap signal (histone peptide microarray): GST-tagged KDM5A (1), sheet Array Heatmap, each array performed twice
How it was run: as §1

[31] = test system: ING5; conditions: total n = 4; for Array Heatmap signal (histone peptide microarray): GST-tagged ING5, sheet Array Heatmap, each array performed twice
How it was run: as §1

[32] = sheet "Array Heatmap", GST-tagged reader, histone peptide array

H3K4me3 + K9ac: H3 1-20
Array Heatmap signal (histone peptide microarray) [1]: 0.6133 | Array Heatmap signal (histone peptide microarray) [2]: 0.7108 | Array Heatmap signal (histone peptide microarray) [3]: 0.5829 | Array Heatmap signal (histone peptide microarray) [4]: 0.4382 | Array Heatmap signal (histone peptide microarray) [5]: 0.8313 | Array Heatmap signal (histone peptide microarray) [6]: 0.5612 | Array Heatmap signal (histone peptide microarray) [7]: 0.8735 | Array Heatmap signal (histone peptide microarray) [8]: 0.7448 | Array Heatmap signal (histone peptide microarray) [9]: 0.6603 | Array Heatmap signal (histone peptide microarray) [10]: 0.9106 | Array Heatmap signal (histone peptide microarray) [11]: 0.6305 | Array Heatmap signal (histone peptide microarray) [12]: 0.7027 | Array Heatmap signal (histone peptide microarray) [13]: 0.8182 | Array Heatmap signal (histone peptide microarray) [14]: 0.7776 | Array Heatmap signal (histone peptide microarray) [15]: 0.8738 | Array Heatmap signal (histone peptide microarray) [16]: 0.4768 | Array Heatmap signal (histone peptide microarray) [17]: 0.9386 | Array Heatmap signal (histone peptide microarray) [18]: 0.7477 | Array Heatmap signal (histone peptide microarray) [19]: 0.8466 | Array Heatmap signal (histone peptide microarray) [20]: 0.7875 | Array Heatmap signal (histone peptide microarray) [21]: 0.6012 | Array Heatmap signal (histone peptide microarray) [22]: 0.4556 | Array Heatmap signal (histone peptide microarray) [23]: 0.7366 | Array Heatmap signal (histone peptide microarray) [24]: 0.6185 | Array Heatmap signal (histone peptide microarray) [25]: 0.93 | Array Heatmap signal (histone peptide microarray) [26]: 0.4068 | Array Heatmap signal (histone peptide microarray) [27]: 0.3446 | Array Heatmap signal (histone peptide microarray) [28]: 0.8165 | Array Heatmap signal (histone peptide microarray) [29]: 0.6077 | Array Heatmap signal (histone peptide microarray) [30]: 0.468 | Array Heatmap signal (histone peptide microarray) [31]: 0.4241

H3K4me3 + K9me3: H3 1-20
Array Heatmap signal, PHRF1 (RP) [1, 32]: 0.5034 | Array Heatmap signal, DPF2 (PPC2W2) [2, 32]: 0.7108 | Array Heatmap signal, KDM4C (TTP) [3, 32]: 0.5629 | Array Heatmap signal, PHF21A [4, 32]: 0.4927 | Array Heatmap signal, MLL5 [5, 32]: 0.6708 | Array Heatmap signal, CHD5 (PPCC) [6, 32]: 0.5893 | Array Heatmap signal, RAG2 [7, 32]: 0.359 | Array Heatmap signal, KDM5B (3) [8, 32]: 0.5506 | Array Heatmap signal, TRIM66 (PB) [9, 32]: 0.5701 | Array Heatmap signal, PHF2 [10, 32]: 0.6501 | Array Heatmap signal, ING4 [11, 32]: 0.4847 | Array Heatmap signal, KDM5B (1) [12, 32]: 0.6368 | Array Heatmap signal, ING1 [13, 32]: 0.6677 | Array Heatmap signal, MORC3 (CW) [14, 32]: 0.5189 | Array Heatmap signal, ING2 [15, 32]: 0.7112 | Array Heatmap signal, BAZ2B [16, 32]: 0.4905 | Array Heatmap signal, DIDO1 [17, 32]: 0.7556 | Array Heatmap signal, PHF13 [18, 32]: 0.6561 | Array Heatmap signal, PHF23 [19, 32]: 0.5934 | Array Heatmap signal, CHD5 (PCC) [20, 32]: 0.7845 | Array Heatmap signal, BPTF (PB) [21, 32]: 0.3806 | Array Heatmap signal, KDM7A [22, 32]: 0.4063 | Array Heatmap signal, TAF3 [23, 32]: 0.3501 | Array Heatmap signal, CHD4 (PPCC) [24, 32]: 0.5681 | Array Heatmap signal, KDM5A (3) [25, 32]: 0.6222 | Array Heatmap signal, AIRE (PP) [26, 32]: 0.4775 | Array Heatmap signal, SP140L [27, 32]: 0.3795 | Array Heatmap signal, ING3 [28, 32]: 0.5385 | Array Heatmap signal, PHF8 [29, 32]: 0.4712 | Array Heatmap signal, KDM5A (1) [30, 32]: 0.4868 | Array Heatmap signal, ING5 [31, 32]: 0.4091

H3K4me3 + K14ac + K18ac: H3 1-20
Array Heatmap signal (histone peptide microarray) [1]: 0.6285 | Array Heatmap signal (histone peptide microarray) [2]: 0.7705 | Array Heatmap signal (histone peptide microarray) [3]: 0.868 | Array Heatmap signal (histone peptide microarray) [4]: 0.4924 | Array Heatmap signal (histone peptide microarray) [5]: 0.9197 | Array Heatmap signal (histone peptide microarray) [6]: 0.6153 | Array Heatmap signal (histone peptide microarray) [7]: 1 | Array Heatmap signal (histone peptide microarray) [8]: 0.9729 | Array Heatmap signal (histone peptide microarray) [9]: 0.7091 | Array Heatmap signal (histone peptide microarray) [10]: 0.829 | Array Heatmap signal (histone peptide microarray) [11]: 0.8448 | Array Heatmap signal (histone peptide microarray) [12]: 0.8317 | Array Heatmap signal (histone peptide microarray) [13]: 0.9274 | Array Heatmap signal (histone peptide microarray) [14]: 0.9877 | Array Heatmap signal (histone peptide microarray) [15]: 0.908 | Array Heatmap signal (histone peptide microarray) [16]: 0.6645 | Array Heatmap signal (histone peptide microarray) [17]: 0.9566 | Array Heatmap signal (histone peptide microarray) [18]: 0.9146 | Array Heatmap signal (histone peptide microarray) [19]: 0.9183 | Array Heatmap signal (histone peptide microarray) [20]: 0.8498 | Array Heatmap signal (histone peptide microarray) [21]: 1 | Array Heatmap signal (histone peptide microarray) [22]: 0.7919 | Array Heatmap signal (histone peptide microarray) [23]: 1 | Array Heatmap signal (histone peptide microarray) [24]: 0.5986 | Array Heatmap signal (histone peptide microarray) [25]: 0.9424 | Array Heatmap signal (histone peptide microarray) [26]: 0.5611 | Array Heatmap signal (histone peptide microarray) [27]: 0.3709 | Array Heatmap signal (histone peptide microarray) [28]: 1 | Array Heatmap signal (histone peptide microarray) [29]: 0.9943 | Array Heatmap signal (histone peptide microarray) [30]: 0.5146 | Array Heatmap signal (histone peptide microarray) [31]: 0.6681
